Marks after values point to notes of the source that are not given here.
Columns and labels:
Format in all cases: in vivo
Kunming mice [1] = experiment: Influence on autonomic activity of normal mice (ZIL-2 mice autonomic activity meter, counts within 10 min); conditions: intragastric, x ± s, n = 10; for Times of activities in 1 h after drug administration/10 min: 1 h after administration; for Times of activities in 2 h after drug administration/10 min: 2 h after administration; for Times of activities in 24 h after drug administration/10 min: 24 h after administration
How it was run: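 Kunming mice (10 per group, half each sex) were dosed at 25, 50 or 100 mg/kg in 0.5% CMC-Na. Spontaneous activity counts over 10 min were recorded at 1 h, 2 h and 24 h post-dose. Groups were compared by ANOVA with Dunnett's test after Levene's check.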

Kunming mice [2] = experiment: Influence on hypnosis effect with pentobarbital sodium doses below the threshold (25 mg/kg i.p.); conditions: pentobarbital sodium 25 mg/kg i.p. 60 min later, sleep observed in 30 min, n = 10
How it was run: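 Kunming mice (10 per group, half female) given single oral doses of 25, 50 or 100 mg/kg in 0.5% CMC-Na; 60 min later pentobarbital sodium 25 mg/kg i.p. Sleep (righting reflex lost >1 min) scored within 30 min as percentage asleep, χ2 test.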

Kunming mice [3] = experiment: Influence on hypnosis effect with pentobarbital sodium doses at the threshold (50 mg/kg i.p.); conditions: pentobarbital sodium 50 mg/kg i.p. 60 min later, x ± s, n = 10
How it was run: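 Kunming mice (10/group, half each sex) received compound in 0.5% CMC-Na intragastrically at 25, 50 or 100 mg/kg; 60 min later given 0.3% sodium pentobarbital 50 mg/kg i.p. Sleep latency and duration recorded by loss of righting reflex over 1 min; ANOVA and χ2 for sleep incidence.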

[4] = test drug 25 mg/kg intragastric single dose
[5] = test drug 50 mg/kg intragastric single dose
[6] = test drug 100 mg/kg intragastric single dose
[7] = 25 mg/kg intragastric single dose
[8] = 50 mg/kg intragastric single dose
[9] = 100 mg/kg intragastric single dose

Row | Compound | Times of activities in 1 h after drug administration/10 min (Kunming mice [1]; 25 mg/kg) | Times of activities in 2 h after drug administration/10 min (Kunming mice [1]; 25 mg/kg) | Times of activities in 24 h after drug administration/10 min (Kunming mice [1]; 25 mg/kg) | Times of activities in 1 h after drug administration/10 min (Kunming mice [1]; 50 mg/kg) | Times of activities in 2 h after drug administration/10 min (Kunming mice [1]; 50 mg/kg) | Times of activities in 24 h after drug administration/10 min (Kunming mice [1]; 50 mg/kg) | Times of activities in 1 h after drug administration/10 min (Kunming mice [1]; 100 mg/kg) | Times of activities in 2 h after drug administration/10 min (Kunming mice [1]; 100 mg/kg) | Times of activities in 24 h after drug administration/10 min (Kunming mice [1]; 100 mg/kg) | Number of sleeping animals (Kunming mice [2]; [4]) | rate of sleeping (%) (Kunming mice [2]; [4]) | Number of sleeping animals (Kunming mice [2]; [5]) | rate of sleeping (%) (Kunming mice [2]; [5]) | Number of sleeping animals (Kunming mice [2]; [6]) | rate of sleeping (%) (Kunming mice [2]; [6]) | duration of sleep (Kunming mice [3]; [7]) [min] | time to sleep (Kunming mice [3]; [7]) [min] | duration of sleep (Kunming mice [3]; [8]) [min] | time to sleep (Kunming mice [3]; [8]) [min] | duration of sleep (Kunming mice [3]; [9]) [min] | also measured
1 | COc1cc(OC)c2c(c1)OC(c1cc(OC)c(OC)c(OC)c1)CC2=O (stereo not drawn) [Example 46, 5,7,3′,4′,5′-penta methoxyl-flavanone] | 300.8 ± 49.2 /10 min | 299.2 ± 38.9 /10 min | 275.4 ± 81.3 /10 min | 264.4 ± 41.3 /10 min | 254.1 ± 53.2 /10 min | 284.7 ± 78.7 /10 min | 176.8 ± 43.2 /10 min | 163.4 ± 36.5 /10 min | 294.4 ± 67.5 /10 min | 3 | 30% | 6 | 60** % | 7 | 70** % | 27.80 ± 23.24 | 5.52 ± 2.31 | 47.16 ± 23.51 | 4.22 ± 1.23 | 55.58 ± 20.72 | time to sleep (Kunming mice [3]; [9]): 3.96 ± 2.45 min
2 | COc1ccc(-c2cc(=O)c3c(OC)cc(O)cc3o2)cc1OC [Example 5, 7-hydroxyl-5,3′,4′-trimethoxyl-flavone] | 265.2 ± 50.1 /10 min | 243.2 ± 42.8 /10 min | 292.8 ± 82.1 /10 min | 175.4 ± 50.3 /10 min | 190.2 ± 56.8 /10 min | 295.3 ± 91.3 /10 min | 120.2 ± 39.0 /10 min | 116.3 ± 49.2 /10 min | 283.5 ± 94.0 /10 min | 6 | 60** % | 8 | 80*** % | 9 | 90*** % | 59.92 ± 17.44 | 3.39 ± 1.71 | 74.82 ± 22.78 | 3.26 ± 1.47 | 89.01 ± 18.25 | time to sleep (Kunming mice [3]; [9]): 2.23 ± 1.19 min
3 | Cc1cc(C2CC(=O)c3c(cccc3[N+](=O)[O-])O2)ccc1Oc1ccccc1 (stereo not drawn) [Example 63] | 250.6 ± 35.5 /10 min | 239.3 ± 34.6 /10 min | 269.5 ± 79.5 /10 min | 168.5 ± 53.0 /10 min | 151.3 ± 57.0 /10 min | 283.8 ± 79.3 /10 min | 124.5 ± 42.0 /10 min | 117.3 ± 54.8 /10 min | 320.3 ± 76.0 /10 min | 6 | 60** % | 8 | 80*** % | 9 | 90*** % | 47.87 ± 14.62 | 3.43 ± 1.46 | 62.64 ± 22.64 | 3.09 ± 1.41 | 87.42 ± 18.53 | time to sleep (Kunming mice [3]; [9]): 2.33 ± 1.27 min
4 | CCc1cccc2c1C(=O)CC(c1cc(F)cc(C(=O)O)c1)O2 (stereo not drawn) [Example 53] | 303.8 ± 67.4 /10 min | 283.8 ± 73.8 /10 min | 314.9 ± 68.9 /10 min | 249.3 ± 61.0 /10 min | 236.7 ± 60.8 /10 min | 297.7 ± 87.6 /10 min | 201.8 ± 36.6 /10 min | 194.8 ± 42.5 /10 min | 330.9 ± 73.6 /10 min | 4 | 40* % | 6 | 60** % | 7 | 70** % | 39.56 ± 20.45 | 4.82 ± 1.61 | 47.28 ± 16.84 | 4.31 ± 1.84 | 52.86 ± 19.25 | time to sleep (Kunming mice [3]; [9]): 3.61 ± 1.48 min
5 | CCc1cc(C2CC(=O)c3cc([N+](=O)[O-])c(SC#N)c(C4CCNC4)c3O2)ccc1C(=O)c1ccccc1 (stereo not drawn) [Example 54] | 307.3 ± 65.2 /10 min | 287.3 ± 72.9 /10 min | 331.2 ± 67.4 /10 min | 252.8 ± 62.1 /10 min | 240.2 ± 62.6 /10 min | 320.7 ± 75.1 /10 min | 205.3 ± 42.8 /10 min | 198.3 ± 48.5 /10 min | 315.3 ± 79.2 /10 min | 3 | 30% | 5 | 50** % | 7 | 70** % | 35.81 ± 17.2 | 4.84 ± 1.64 | 43.53 ± 14.97 | 4.33 ± 1.87 | 47.53 ± 15.92 | time to sleep (Kunming mice [3]; [9]): 3.63 ± 1.54 min
6 | CCCCCc1cc(-c2cc(=O)c3c(CC)cc(CCCCCCl)cc3o2)cc(O)c1Cc1ccccc1 [Example 19] | 282.2 ± 46.5 /10 min | 265.0 ± 45.3 /10 min | 302.8 ± 83.2 /10 min | 234.7 ± 40.1 /10 min | 243.5 ± 48.3 /10 min | 306.2 ± 81.3 /10 min | 229.6 ± 34.8 /10 min | 172.5 ± 39.2 /10 min | 287.8 ± 89.1 /10 min | 3 | 30% | 6 | 60** % | 7 | 70** % | 30.63 ± 20.25 | 4.95 ± 2.00 | 37.67 ± 13.45 | 4.57 ± 1.65 | 52.65 ± 20.15 | time to sleep (Kunming mice [3]; [9]): 3.94 ± 1.23 min
